Here are results for 24 molecules from US11691992B2 (Anacor Pharmaceuticals, Inc., priority 2017, dated 2023).

Assay [1] relates to promastigote forms of L. major. Description: Leishmania major promastigote growth inhibition assay (Alamar Blue). Type of assay: cell-based. The settings on record: promastigotes, 44 hours + 4 hours Alamar Blue, read-out: IC50: I Org. promastigote Growth L. major, 2 d. An excerpt:
Example 108. Leishmania major Promastigote Growth Inhibition Assay
The promastigote assay is a microtiter plate drug sensitivity prescreen assay used to determine antileishmanial activity of candidate drugs against promastigote forms of L. major. (Shadow et al., PLOS Neglected Tropical Diseases, 2009, e311.) Alamar Blue, or resazurin, is a non-fluorescent indicator dye that is converted to bright red-fluorescent resorufin via the activity of mitochondrial reductases. As the activity of mitochondrial reductases is reduced in cells that are dead or dying, and the intensity of the fluorescence is relative to cell number, a test compound that kills or inhibits growth of a particular target cell, such as L. major, will result in a lower production of fluorescent signal. Pre-dosed microtiter drug plates for use in the promastigote drug prescreen assay were produced using sterile 384-well black optical bottom tissue culture plates (Nunc Cat #12-565-344). Candidate drugs were diluted in dimethyl sulfoxide in four 96-well plates to either 10,000 ng/ml or 1,000 ng/ml, and 4.25 μL of diluted drug was subsequently dispensed into each well of a 384-well plate. Duplicate 384 well plates were made at each test concentration (10,000 ng/mL and 1,000 ng/mL) and amphotericin B was used as a batch control. The Tecan EVO Freedom liquid handling system (Tecan US, Inc., Durham, N.C.) was used to produce all drug assay plates and conduct all pipetting operations for this assay. L. major parasites were cultured in Schneider's medium (Lonza Cat #04-351Q) supplemented with 20% heat inactivated FBS (Invitrogen Cat #16140-089). Promastigotes in early log growth phase were harvested from culture, counted, suspended at 1.32×10^5 cells/mF and 5,000 promastigotes were dispensed into each well of the 384 well plate in a volume of 38.8 μL. The 384 well plates were subsequently incubated at 28° C. for 44 hours. 8.4 μF of Alamar Blue (Promega, Cat #G8081) was added to each well, the plates were subsequently incubated at 28° C. and 5% CO2 for 4 hours and then examined for the relative fluorescence units (RFU) per well using the Tecan Genios Plus (Tecan US, Inc., Durham, N.C.) with excitation set at 560 nm and emission set at 590 nm. The relative fluorescence from each well was used to determine the percent growth inhibition of each candidate compound tested. Compounds with 50% or greater inhibition of growth were selected for further analysis to determine IC50 values.

For assay [2], the system named is IL3000 T. congolense (drug sensitive) strain. Kind of assay: In vitro Alamar Blue 72 h drug sensitivity assay for T. congolense. In kind it is cell-based. Conditions: Trypanosoma congolense; bloodstream form, 69 h + 3 h resazurin, 34° C.; classes A-C; read-out: IC50: I Org. Growth T. congolense IL-3000, 3 d. The gist of the method:
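Bloodstream-form trypanosomes in HMI medium with 20% bovine serum, exposed to compound for 69 h at 34 °C, 5% CO2, then resazurin for 3 h more. Fluorescence read at 536/588 nm. IC50 from 11-point sigmoidal dose-response curves, at least three independent runs.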
In general terms: The colour change of resazurin is a common sign of viable cells or microbes.

Broadly, the IC50 is the point on the concentration scale where inhibition reaches its midpoint.

Molecules are shown by their SMILES.

On to `CC1OB(O)c2cc(NC(=O)c3cn(-c4ccccc4)nn3)ccc21` (stereo not shown) [Example 2], for which the values for the 50% inhibitory concentration (IC50) in assay [1] and in assay [2] were under 0.6 µM and under 0.1 µM, respectively.
Consider `O=C(Nc1ccc2c(c1)B(O)OC21CCC1)c1cn(-c2ccccc2)nn1` [Example 3, N-(1-hydroxy-1H-spiro[benzo[c][1,2]oxaborole-3,1′-cyclobutan]-6-yl)-1-phenyl-1H-1,2,3-triazole-4-carboxamide], for which the concentration for half-maximal inhibition (IC50) fell in the range of 0.6 to 2.5 µM in assay [1] and 0.1 to 0.3 µM in assay [2].
Take `Cc1c(C(=O)Nc2ccc3c(c2)B(O)OC32CCC2)nnn1-c1ccccc1` [Example 4, N-(1-hydroxy-1H-spiro[benzo[c][1,2]oxaborole-3,1′-cyclobutan]-6-yl)-5-methyl-1-phenyl-1H-1,2,3-triazole-4-carboxamide]: the IC50 in assay [1] lay in the range of 0.6 to 2.5 µM; in assay [2], 0.1 to 0.3 µM.
Take `CC1OB(O)c2cc(NC(=O)c3cn(-c4ccc(F)cc4)nn3)ccc21` (stereo not shown) [Example 5]: the IC50 in assay [1] was in the range of 0.6 to 2.5 µM; in assay [2] it was 0.1 to 0.3 µM.
For the molecule `Cc1c(C(=O)Nc2ccc3c(c2)B(O)OC3C)nnn1-c1ccc(F)cc1` (stereo not shown) [Example 6, 1-(4-fluorophenyl)-N-(1-hydroxy-3-methyl-1,3-dihydrobenzo[c][1,2]oxaborol-6-yl)-5-methyl-1H-1,2,3-triazole-4-carboxamide], the IC50 lay within 0.6 to 2.5 µM in assay [1] and 0.1 to 0.3 µM in assay [2].
The like results for `O=C(Nc1ccc2c(c1)B(O)OC21CCC1)c1cn(-c2ccc(F)cc2)nn1` [Example 7, 1-(4-fluorophenyl)-N-(1-hydroxy-1H-spiro[benzo[c][1,2]oxaborole-3,1′-cyclobutan]-6-yl)-1H-1,2,3-triazole-4-carboxamide] were, in that order, 2.51 to 20 µM and 0.31 to 100 µM.
The like results for `O=C(Nc1ccc2c(c1)B(O)OC21CCC1)c1cn(-c2cccnc2)nn1` [Example 8, N-(1-hydroxy-1H-spiro[benzo[c][1,2]oxaborole-3,1′-cyclobutan]-6-yl)-1-(pyridin-3-yl)-1H-1,2,3-triazole-4-carboxamide] were, in that order, 2.51 to 20 µM and 0.31 to 100 µM.
The like results for `Cc1c(C(=O)Nc2ccc3c(c2)B(O)OC32CCC2)nnn1-c1ccc(F)cc1` [Example 9, 1-(4-fluorophenyl)-N-(1-hydroxy-1H-spiro[benzo[c][1,2]oxaborole-3,1′-cyclobutan]-6-yl)-5-methyl-1H-1,2,3-triazole-4-carboxamide] were, in that order, 0.6 to 2.5 µM and 0.31 to 100 µM.
Consider `Cc1ccc(-n2cc(C(=O)Nc3ccc4c(c3)B(O)OC4)nn2)cc1` [Example 10, N-(1-hydroxy-1,3-dihydrobenzo[c][1,2]oxaborol-6-yl)-1-(p-tolyl)-1H-1,2,3-triazole-4-carboxamide], for which the results for the IC50 in assay [1] and in assay [2] were under 0.6 µM and under 0.1 µM, respectively.
As for `Cc1ccc(-n2nnc(C(=O)Nc3ccc4c(c3)B(O)OC4)c2C)cc1` [Example 11, N-(1-hydroxy-1,3-dihydrobenzo[c][1,2]oxaborol-6-yl)-5-methyl-1-(p-tolyl)-1H-1,2,3-triazole-4-carboxamide], the IC50 in assay [1] is under 0.6 µM; in assay [2], under 0.1 µM.
Regarding `CC1OB(O)c2cc(NC(=O)c3cn(-c4cccnc4)nn3)ccc21` (stereo not shown) [Example 12, N-(1-hydroxy-3-methyl-1,3-dihydrobenzo[c][1,2]oxaborol-6-yl)-1-(pyridin-3-yl)-1H-1,2,3-triazole-4-carboxamide], the IC50 in assay [1] was 2.51 to 20 µM; in assay [2], under 0.1 µM.
As for `Cc1ccc(-n2nnc(C(=O)Nc3ccc4c(c3)B(O)OC4C)c2C)cc1` (stereo not shown) [Example 13, N-(1-hydroxy-3-methyl-1,3-dihydrobenzo[c][1,2]oxaborol-6-yl)-5-methyl-1-(p-tolyl)-1H-1,2,3-triazole-4-carboxamide], the results for the IC50 in assay [1] and in assay [2] were 0.6 to 2.5 µM and 0.1 to 0.3 µM, respectively.
Regarding `Cc1c(C(=O)Nc2ccc3c(c2)B(O)OC3C)nnn1-c1cccnc1` (stereo not shown) [Example 14], the half-inhibitory concentration (IC50) is 2.51 to 20 µM in assay [1] and under 0.1 µM in assay [2].
Turning to `Cc1ccc(-n2cc(C(=O)Nc3ccc4c(c3)B(O)OC43CCC3)nn2)cc1` [Example 15], the values for the IC50 in assay [1] and in assay [2] were 2.51 to 20 µM and 0.1 to 0.3 µM, respectively.
Consider `Cc1ccc(-n2nnc(C(=O)Nc3ccc4c(c3)B(O)OC43CCC3)c2C)cc1` [Example 16, N-(1-hydroxy-1H-spiro[benzo[c][1,2]oxaborole-3,1′-cyclobutan]-6-yl)-5-methyl-1-(p-tolyl)-1H-1,2,3-triazole-4-carboxamide], for which the concentration for half-maximal inhibition (IC50) in assay [1] lay in the range of 0.6 to 2.5 µM; in assay [2], 0.31 to 100 µM.
Consider `Cc1c(C(=O)Nc2ccc3c(c2)B(O)OC32CCC2)nnn1-c1cccnc1` [Example 17, N-(1-hydroxy-1H-spiro[benzo[c][1,2]oxaborole-3,1′-cyclobutan]-6-yl)-5-methyl-1-(pyridin-3-yl)-1H-1,2,3-triazole-4-carboxamide], for which the half-maximal inhibitory concentration (IC50) in assay [1] lay in the range of 2.51 to 20 µM; in assay [2], 0.31 to 100 µM.
On to `Cc1ccc(-n2cc(C(=O)Nc3ccc4c(c3)B(O)OC4C)nn2)cc1` (stereo not shown) [Example 18, N-(1-hydroxy-3-methyl-1,3-dihydrobenzo[c][1,2]oxaborol-6-yl)-1-(p-tolyl)-1H-1,2,3-triazole-4-carboxamide], for which the IC50 in assay [1] is 0.6 to 2.5 µM; in assay [2] it was under 0.1 µM.
For `COc1ccc(-n2nnc(C(=O)Nc3ccc4c(c3)B(O)OC4C)c2C)cc1` (stereo not shown) [Example 19, N-(1-hydroxy-3-methyl-1,3-dihydrobenzo[c][1,2]oxaborol-6-yl)-1-(4-methoxyphenyl)-5-methyl-1H-1,2,3-triazole-4-carboxamide] the same measures were 0.6 to 2.5 µM and 0.1 to 0.3 µM.
For `COc1ccc(-n2nnc(C(=O)Nc3ccc4c(c3)B(O)OC43CCC3)c2C)cc1` [Example 20, N-(1-hydroxy-1H-spiro[benzo[c][1,2]oxaborole-3,1′-cyclobutan]-6-yl)-1-(4-methoxyphenyl)-5-methyl-1H-1,2,3-triazole-4-carboxamide] the same measures were under 0.6 µM and 0.31 to 100 µM.
Consider `O=C(Nc1ccc2c(c1)B(O)OC2)c1cn(-c2ccc(F)cc2)nn1` [Example 60, 1-(4-Fluorophenyl)-N-(1-hydroxy-1,3-dihydrobenzo[c][1,2]oxaborol-6-yl)-1H-1,2,3-triazole-4-carboxamide], for which the 50% inhibitory concentration (IC50) in assay [2] was under 0.1 µM.
The same measure, in the same setting: the value for `O=C(Nc1ccc2c(c1)B(O)OC2)c1nnn(-c2ccccc2F)c1C(F)(F)F` [Example 67, 1-(2-Fluorophenyl)-N-(1-hydroxy-1,3-dihydrobenzo[c][1,2]oxaborol-6-yl)-5-(trifluoromethyl)-1H-1,2,3-triazole-4-carboxamide] was 0.1 to 0.3 µM; that for `O=C(Nc1ccc2c(c1)B(O)OC2)c1nnn(-c2cccc(F)c2)c1C(F)(F)F` [Example 69, 1-(3-Fluorophenyl)-N-(1-hydroxy-1,3-dihydrobenzo[c][1,2]oxaborol-6-yl)-5-(trifluoromethyl)-1H-1,2,3-triazole-4-carboxamide] was 0.1 to 0.3 µM; that for `O=C(Nc1ccc2c(c1)B(O)OC2)c1nnn(-c2ccc(F)cc2)c1C(F)(F)F` [Example 70, 1-(4-Fluorophenyl)-N-(1-hydroxy-1,3-dihydrobenzo[c][1,2]oxaborol-6-yl)-5-(trifluoromethyl)-1H-1,2,3-triazole-4-carboxamide] was 0.1 to 0.3 µM.
As to `O=C(Nc1ccc2c(c1)B(O)OC2)c1nnn(-c2cccnc2)c1C(F)(F)F` [Example 71, N-(1-hydroxy-1,3-dihydrobenzo[c][1,2]oxaborol-6-yl)-1-(pyridin-3-yl)-5-(trifluoromethyl)-1H-1,2,3-triazole-4-carboxamide], in assay [2], the IC50 is under 0.1 µM.
